Test results as given in US4596873A, “1,4,5,6,7,8-Hexahydro-2-alkyl-4-aryl-5-oxo-1,7-naphthyridine-3-carboxyl ic acid aromatic esters and pharmaceutically acceptable acid addition salts thereof useful as antihypertensive agents” (American Home Products Corporation, priority 1985, dated 1986).

Key:
[1] = tested on: isolated paced intact rabbit atria; assay: negative inotropic (cardiac depressant) effect in isolated paced intact rabbit atria; assay type: cell-based; conditions: for IC25: Oryctolagus cuniculus, read-out: IC25 (concentration which produces 25% inhibition of isometric force)
Description: The potential for detrimental cardiac depressant (negative inotropic) effects of the compounds of this invention was assessed in isolated paced intact rabbit atria. Left and right atria (with nodal tissue excised) were suspended vertically in a jacketed (30° C.) organ bath containing 50 ml of PSS and aerated with 95% O2 /5% CO2. Muscles (N=5-9/compound) were stimulated at a frequency of 3 Hz with a WPI stimulator for a 60 minute equilibration period. Changes in isometric force were recorded as described for the aortic smooth muscle experiments,supra. Following equilibration, the test compound (or as a control, the ethanol vehicle) was added to the organ bath in a cumulative manner from doses ranging from 10^-9 M to 10^-5 M (10^-5 M was the maximum dose which could be attained due to the depressant effect of ethanol) and effects on developed isometric force were determined.
(§1) The following examples illustrate the preparation of a representative number of compounds of this invention. After each example, and Ca^+2 antagonist activity of the compound is presented in terms of percent relaxation of aortic tissue (P.R.) at 10^-5 M concentration. […] Inhibition of superprecipitation (Antag. of Actin-Myosin interaction) is expressed as percent inhibition (mean±standard error of the mean for at least 3 separate experiments) at a compound concentration. In the same manner, inhibition of myosin light chain phosphorylation (Antag. of MLCP) is expressed as a percent inhibition at a compound concentration. Similarly, the antihypertensive activity is reported in terms of millimeters mercury (mmHg) systolic blood pressure (B.P.) reduction at the stated time post 50 mg/kg oral dosing or other dosing as indicated.

[2] = tested on: spontaneously hypertensive rats; assay: decrease in systolic blood pressure of spontaneously hypertensive rats; assay type: in vivo, rat
[3] = tested on: Ca^+2 -calmodulin dependent myosin light chain phosphorylation; assay: inhibition of Ca^+2-calmodulin dependent myosin light chain phosphorylation (MLCP); assay type: biochemical
Description: (§2) The data reported herein was obtained at a six minute time-point rather than the 1.5, 5 and 12 minute time points indicated in the superprecipitation assay of the Silver et al. paper.
as §1

[4] = tested on: arterial actin-myosin interactions; assay: inhibition of superprecipitation (antagonism of arterial actin-myosin interaction); assay type: biochemical; conditions: six minute time-point, mean±SEM
Description: as §2, §1

[5] = 3 Hz, cumulative 10^-9 M to 10^-5 M

CC1=C(C(=O)OCCOc2ccccc2)C(c2c(F)c(F)c(F)c(F)c2F)C2=C(CNCC2=O)N1 (single isomer, unassigned; (+)) [Example 4, (+)-1,4,5,6,7,8-Hexahydro-2-methyl-5-oxo-4-(pentafluorophenyl)-1,7-naphthyridine-3-carboxylic acid 2-phenoxyethyl ester]
IC25 (concentration which produces 25% inhibition of isometric force) [1, 5]: 800 nM
systolic blood pressure (B.P.) reduction ([2]; 25 mg/kg, 1.5 hours): -58 mmHg
systolic blood pressure (B.P.) reduction ([2]; 25 mg/kg, 4 hours): -78 mmHg
inhibition of myosin light chain phosphorylation (Antag. of MLCP) ([3]; 50 μM): 37%
inhibition of myosin light chain phosphorylation (Antag. of MLCP) ([3]; 100 μM): 67%
inhibition of superprecipitation (Antag. of Actin-Myosin) ([4]; 50 μM): 38%
inhibition of superprecipitation (Antag. of Actin-Myosin) ([4]; 100 μM): 71%

COC(COC(=O)C1=C(C)NC2=C(C(=O)CNC2)C1c1c(F)c(F)c(F)c(F)c1F)c1ccccc1 (centres unmarked) [Example 5, 1,4,5,6,7,8-Hexahydro-2-methyl-5-oxo-4-(pentafluorophenyl)-1,7-naphthryridine-3-carboxylic acid 2-methoxy-2-phenylethyl ester]
IC25 [1, 5]: 1 µM
systolic blood pressure (B.P.) reduction ([2]; 5 mg/kg, 1.5 hours): -44 mmHg
systolic blood pressure (B.P.) reduction ([2]; 5 mg/kg, 4 hours): -38 mmHg
systolic blood pressure (B.P.) reduction ([2]; 10 mg/kg, 1.5 hours): -41 mmHg
systolic blood pressure (B.P.) reduction ([2]; 10 mg/kg, 4 hours): -68 mmHg
systolic blood pressure (B.P.) reduction ([2]; 25 mg/kg, 1.5 hours): -60 mmHg
systolic blood pressure (B.P.) reduction ([2]; 25 mg/kg, 4 hours): -72 mmHg
inhibition of myosin light chain phosphorylation (Antag. of MLCP) ([3]; 25 μM): 21±3%
inhibition of myosin light chain phosphorylation (Antag. of MLCP) ([3]; 50 μM): 48±2%
inhibition of myosin light chain phosphorylation (Antag. of MLCP) ([3]; 100 μM): 70±3%
inhibition of superprecipitation (Antag. of Actin-Myosin) ([4]; 25 μM): 20±5%
inhibition of superprecipitation (Antag. of Actin-Myosin) ([4]; 50 μM): 50±5%
inhibition of superprecipitation (Antag. of Actin-Myosin) ([4]; 100 μM): 75±4%

CO[C@H](COC(=O)C1=C(C)NC2=C(C(=O)CNC2)C1c1c(F)c(F)c(F)c(F)c1F)c1ccccc1 (stereo partly drawn) [Example 7, 1,4,5,6,7,8-Hexahydro-2-methyl-5-oxo-4-(pentafluorophenyl)-1,7-naphthyridine-3-carboxylic acid (S)-2-methoxy-2-phenylethyl ester]
IC25 [1, 5]: 6.5 µM
systolic blood pressure (B.P.) reduction ([2]; 10 mg/kg, 1.5 hours): -51 mmHg
systolic blood pressure (B.P.) reduction ([2]; 10 mg/kg, 4 hours): -54 mmHg
inhibition of myosin light chain phosphorylation (Antag. of MLCP) ([3]; 50 μM): 59%
inhibition of myosin light chain phosphorylation (Antag. of MLCP) ([3]; 100 μM): 74%
inhibition of superprecipitation (Antag. of Actin-Myosin) ([4]; 50 μM): 67%
inhibition of superprecipitation (Antag. of Actin-Myosin) ([4]; 100 μM): 80%

CC1=C(C(=O)OCCCCOc2ccccc2)C(c2c(F)c(F)c(F)c(F)c2F)C2=C(CNCC2=O)N1 (centres unmarked) [Example 21, 1,4,5,6,7,8-Hexahydro-2-methyl-5-oxo-4-(pentafluorophenyl)-1,7-naphthyridine-3-carboxylic acid 4-phenoxybutyl ester]
systolic blood pressure (B.P.) reduction ([2]; 25 mg/kg, 1.5 hours): 0 mmHg
systolic blood pressure (B.P.) reduction ([2]; 25 mg/kg, 4 hours): -49 mmHg
inhibition of myosin light chain phosphorylation (Antag. of MLCP) ([3]; 100 μM): 77%
inhibition of superprecipitation (Antag. of Actin-Myosin) ([4]; 100 μM): 80%

CC1=C(C(=O)OCCOc2cccc(Cl)c2Cl)C(c2c(F)c(F)c(F)c(F)c2F)C2=C(CNCC2=O)N1 (centres unmarked) [Example 22, 1,4,5,6,7,8-Hexahydro-2-methyl-5-oxo-4-(pentafluorophenyl)-1,7-naphthyridine-3-carboxylic acid 2-(2,3-dichlorophenoxy)ethyl ester]
IC25 [1, 5]: 1 µM
systolic blood pressure (B.P.) reduction ([2]; 25 mg/kg, 1.5 hours): -37 mmHg
systolic blood pressure (B.P.) reduction ([2]; 25 mg/kg, 4 hours): -52 mmHg
inhibition of myosin light chain phosphorylation (Antag. of MLCP) ([3]; 10 μM): 25%
inhibition of myosin light chain phosphorylation (Antag. of MLCP) ([3]; 25 μM): 54±2.5%
inhibition of myosin light chain phosphorylation (Antag. of MLCP) ([3]; 50 μM): 73±1.5%
inhibition of myosin light chain phosphorylation (Antag. of MLCP) ([3]; 100 μM): 74±2%
inhibition of superprecipitation (Antag. of Actin-Myosin) ([4]; 10 μM): 30±3%
inhibition of superprecipitation (Antag. of Actin-Myosin) ([4]; 25 μM): 54±3%
inhibition of superprecipitation (Antag. of Actin-Myosin) ([4]; 50 μM): 75±4%
inhibition of superprecipitation (Antag. of Actin-Myosin) ([4]; 100 μM): 78±1%

CC1=C(C(=O)OCCOc2ccccc2)C(c2c(F)ccc(C)c2Cl)C2=C(CNCC2=O)N1 (centres unmarked) [Example 23, 4-(2-chloro-6-fluoro-3-methylphenyl)-1,4,5,6,7,8-hexahydro-2-methyl-5-oxo-1,7-naphthyridine-3-carboxylic acid 2-phenoxyethyl ester]
systolic blood pressure (B.P.) reduction ([2]; 25 mg/kg, 1.5 hours): -22 mmHg
systolic blood pressure (B.P.) reduction ([2]; 25 mg/kg, 4 hours): -31 mmHg
inhibition of myosin light chain phosphorylation (Antag. of MLCP) ([3]; 50 μM): 18%
inhibition of myosin light chain phosphorylation (Antag. of MLCP) ([3]; 100 μM): 56%
inhibition of superprecipitation (Antag. of Actin-Myosin) ([4]; 50 μM): 23%
inhibition of superprecipitation (Antag. of Actin-Myosin) ([4]; 100 μM): 62%

CC1=C(C(=O)OCCOc2ccccc2)C(c2c(F)ccc(Cl)c2Cl)C2=C(CNCC2=O)N1 (centres unmarked) [Example 24, 4-(2,3-Dichloro-6-fluorophenyl)-1,4,5,6,7,8-hexahydro-2-methyl-5-oxo-1,7-naphthyridine-3-carboxylic acid 2-phenoxyethyl ester]
systolic blood pressure (B.P.) reduction ([2]; 5 mg/kg, 1.5 hours): -17 mmHg
systolic blood pressure (B.P.) reduction ([2]; 5 mg/kg, 4 hours): -26 mmHg
systolic blood pressure (B.P.) reduction ([2]; 10 mg/kg, 1.5 hours): -6 mmHg
systolic blood pressure (B.P.) reduction ([2]; 10 mg/kg, 4 hours): -26 mmHg
systolic blood pressure (B.P.) reduction ([2]; 25 mg/kg, 1.5 hours): -50 mmHg
systolic blood pressure (B.P.) reduction ([2]; 25 mg/kg, 4 hours): -70 mmHg
inhibition of myosin light chain phosphorylation (Antag. of MLCP) ([3]; 25 μM): 8±2%
inhibition of myosin light chain phosphorylation (Antag. of MLCP) ([3]; 50 μM): 50±2%
inhibition of myosin light chain phosphorylation (Antag. of MLCP) ([3]; 100 μM): 68±1%
inhibition of superprecipitation (Antag. of Actin-Myosin) ([4]; 25 μM): 9±2%
inhibition of superprecipitation (Antag. of Actin-Myosin) ([4]; 50 μM): 54±3%
inhibition of superprecipitation (Antag. of Actin-Myosin) ([4]; 100 μM): 72±1%

COc1ccc(CCN(C)CCCC(C#N)(c2ccc(OC)c(OC)c2)C(C)C)cc1OC (centres unmarked) [Verapamil, reference compound]
cardiac depression / negative inotropism (in words) [1]: direct negative inotropism

CCOC(=O)C1=C(C)NC(C)=C(C(=O)OC)C1c1cccc(Cl)c1Cl (centres unmarked) [felodipine]
cardiac depression / negative inotropism (in words) [1]: direct negative inotropism
IC25 [1, 5]: 0.8 µM

COC(=O)C1=C(C)NC(C)=C(C(=O)OC)C1c1ccccc1[N+](=O)[O-] [nifedipine, reference compound]
cardiac depression / negative inotropism (in words) [1]: direct negative inotropism

CCOC(=O)C1=C(C)NC(C)=C(C(=O)OC)C1c1cccc([N+](=O)[O-])c1 (centres unmarked) [nitrendipine, reference compound]
cardiac depression / negative inotropism (in words) [1]: direct negative inotropism
